Patent US20220202822A1, “8-SUBSTITUTED ARYL VINYL XANTHINE DERIVATIVES AND USES THEREOF” (SUNSHINE LAKE PHARMA CO., LTD., priority 2019, published 2022)

How the values were obtained:
[1] = molecular target: T1, human adenosine A2A receptor (Homo sapiens, UniProt P29274); assay: Antagonizing effect on human adenosine A2A receptor (cAMP, TR-FRET, NECA-stimulated HEK-293 cells); format: cell-based; details: inhibition of cAMP produced by NECA (3 nM), HEK-293 cells expressing human recombinant A2A receptor
T1 construct: expressed in transfected cells; host or cells: HEK-293
T1 sequence (P29274 whole entry): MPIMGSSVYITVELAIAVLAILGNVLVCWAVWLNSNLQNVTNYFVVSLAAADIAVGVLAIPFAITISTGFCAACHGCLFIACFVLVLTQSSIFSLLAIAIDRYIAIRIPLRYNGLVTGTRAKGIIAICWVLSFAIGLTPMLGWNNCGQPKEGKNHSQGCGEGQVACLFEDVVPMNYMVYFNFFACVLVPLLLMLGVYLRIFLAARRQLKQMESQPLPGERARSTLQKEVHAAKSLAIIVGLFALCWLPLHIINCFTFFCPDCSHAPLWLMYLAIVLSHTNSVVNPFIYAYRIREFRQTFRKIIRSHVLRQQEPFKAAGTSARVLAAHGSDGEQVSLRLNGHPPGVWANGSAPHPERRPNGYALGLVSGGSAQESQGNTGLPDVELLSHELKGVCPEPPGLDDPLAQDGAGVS
Protocol: The experimental system uses human recombinant adenosine A2A receptor, which is stably expressed in HEK-293 cell line. HEK-293 cells were inoculated into culture plate at a density of 1.25×10^5 cells /mL. The medium was changed by modified HBSS solution with pH 7.4, different concentrations of test compounds (10 μM, 1 μM, 0.1 μM, 10 nM, 1 nM, 0.1 nM) and solvents (PBS with 0.1% DMSO) were added, and the plate was incubated at 37° C. for 10 min. cAMP (cyclic adenosine monophosphate) concentration in culture medium was detected by TR-FRET method. NECA was used as a positive control in this experiment, (1) test compounds alone were used to stimulate cells to produce a certain amount of cAMP, and then NECA (0.1 μM) alone was used to stimulate cells to produce a certain amount of cAMP. A test compound is considered to have agonistic activity on adenosine A2A receptor if the test compound alone stimulates cells to produce cAMP more than 50% of the amount of cAMP produced by NECA (0.1 μM) alone. (2) All cells were first incubated with test compounds and then stimulated with NECA (3 nM). In addition, NECA (3 nM) alone was used to stimulate cells to produce a certain amount of cAMP. […] IC50 was calculated using MathIQ™ (ID Business Solutions Ltd., UK) through nonlinear, least squares regression equation analysis.

[2] = Pharmacokinetic evaluation in rats after intravenous or intragastric administration; format: in vivo, SD rats; details: for AUC(0-inf) / AUC(0-t) / Cmax / MRT inf / Tmax / clearance / half-life: SD, rat, plasma
Protocol: The LC-MS/MS system for analysis includes the Agilent 1200 series vacuum degasser, a quaternary pump, an orifice plate sampler, a thermostatted column oven, and an API4000Qtrap triple quadrupole mass spectrometer with an electrospray ionization source (ESI).
Waters ACQUITY UPLC CSH C18, 2.1×50 mm, 1.7 μm column was used for analysis, and 0.8 μL of sample was injected. Analytical conditions: mobile phase was H2O+2 mM HCOONH4 (ammonium formate)+0.1% FA (formic acid) (mobile phase A) and MeOH (methanol)+2 mM HCOONH4 (ammonium formate)+0.1% FA (formic acid) (mobile phase B). Flow rate was 0.7 mL/min.
The experiment was divided into two groups: one was administered by intravenous injection, and the other was administered by intragastric administration. The compound of the present invention was administered to a test animal (overnight fast for 12 hours) in the form of 10% DMA (heating)+60% PEG400+30% saline solution. For the group of intravenous administration, the administration dose was 1 mg/kg, and vein blood samples (0.3 mL) were collected at the time points of 0.083, 0.25, 0.5, 1.0, 2.0, 5.0, 7.0 and 24 h after administration. EDTA-K2 as anticoagulant was added into the blood vessel. The plasma solutions were collected by centrifuging each blood sample at 3,000 rpm or 4,000 rpm for 10 minutes and kept at −20° C. or −70° C. For the group of intragastric administration, the administration dose was 5 mg/kg, and vein blood samples (0.3 mL) were collected at the time points of 0.25, 0.5, 1.0, 2.0, 5.0, 7.0 and 24 h after administration. EDTA-K2 as anticoagulant was added into the blood vessel. The plasma solutions were collected by centrifuging each blood sample at 3,000 rpm or 4,000 rpm for 10 minutes and kept at −20° C. or −70° C.
20 μL of plasma was taken, 120 μL of IS working solution was added to the plasma, and the plasma mixture was vortexed for 2 min. The mixed solution was then centrifuged at 12,000 rpm for 2 min. 100 μL of the supernatant was taken, 110 μL of MeOH/H2O (v/v=1/1) was added, and the solution was vortexed for 2 minutes, then 5 μL was taken for inj ection into the LC-MS/MS system.

[3] = Pharmacokinetic evaluation in beagles after intravenous or intragastric administration; format: in vivo, beagle
Protocol: The LC/MS/MS system for analysis includes the Agilent 1200 series vacuum degasser, a quaternary pump, an orifice plate sampler, a thermostatted column oven, and an API4000Qtrap triple quadrupole mass spectrometer with an electrospray ionization source (ESI).
Waters xbridge C18, 2.1×50 mm, 3.5 μm column was used for analysis, and 0.5 μL of sample was injected. Analytical conditions: mobile phase consisting of mobile phase A (H2O+2 mM HCOONH4 (ammonium formate) +0.1% FA (formic acid)) and mobile phase B (MeOH (methanol)+2 mM HCOONH4 (ammonium formate)+0.1% FA (formic acid)). Flow rate was 0.7 mL/min.
The experiment was divided into two groups: one was administered by intravenous injection, and the other was administered by intragastric administration. The compound of the present invention was administered to a test animal in the form of 10% DMA (heating)+60% PEG400+30% saline solution. For the group of intravenous administration, the administration dose was 1 mg/kg, and vein blood samples (0.3 mL) were collected at the time points of 0.083, 0.25, 0.5, 1.0, 2.0, 4.0, 6.0, 8.0 and 24 h after administration. The plasma solutions were collected (EDTA-K2 as anticoagulant) by centrifuging each blood sample at 3,000 rpm or 4,000 rpm for 10 minutes and then kept at −20° C. or −70° C. For the group of intragastric administration, the administration dose was 5 mg/kg, and vein blood samples (0.3 mL) were collected at the time points of 0.25, 0.5, 1.0, 2.0, 5.0, 7.0 and 24 h after administration. The plasma solutions were collected (EDTA-K2 as anticoagulant) by centrifuging each blood sample at 3,000 rpm or 4,000 rpm for 10 minutes and then kept at −20° C. or −70° C.
10 μL of plasma was taken, 120 μL of IS working solution was added to the plasma, and the plasma mixture was vortexed for 2 min. The mixed solution was then centrifuged at 12,000 rpm for 2 min. 80 μL of the supernatant was taken, 140 μL of methanol/H2O (v/v =1/1) was added, and the solution was vortexed for 2 minutes, then 1.0 μL was taken for injection into the LC-MS/MS system. LC-MS/MS method was used to detect the concentration of target compounds, and non-compartment model was used to calculate pharmacokinetic parameters, and the results were shown in table C.

[4] = po, intragastric administration, 5 mg/kg
[5] = intragastric administration, 5 mg/kg
[6] = beagle, dog, plasma, intravenous injection, 1 mg/kg
[7] = beagle, dog, plasma, po, intragastric administration, 5 mg/kg

Row | SMILES | IC50 [1] [nM] | AUC(0-inf) ([2]; intravenous injection, 1 mg/kg) [ng·h/mL] | AUC(0-t) ([2]; intravenous injection, 1 mg/kg) [ng·h/mL] | Cmax ([2]; intravenous injection, 1 mg/kg) [ng/mL] | MRT inf ([2]; intravenous injection, 1 mg/kg) [h] | Tmax ([2]; intravenous injection, 1 mg/kg) [h] | clearance ([2]; intravenous injection, 1 mg/kg) [mL/min/kg] | half-life ([2]; intravenous injection, 1 mg/kg) [h] | AUC(0-inf) [2, 4] [ng·h/mL] | AUC(0-t) [2, 4] [ng·h/mL] | Cmax [2, 4] [ng/mL] | MRT inf [2, 4] [h] | Tmax [2, 4] [h] | half-life [2, 4] [h] | F [2, 5] [%] | Vss ([2]; intravenous injection, 1 mg/kg) [kg⁻¹] | further results
1 | CCn1c(=O)c2c(nc(/C=C/c3ccc(OC4CCS(=O)(=O)CC4)c(F)c3)n2C)n(CC)c1=O [Example 2, (E)-8-(4-((1,1-dioxidotetrahydro-2H-thiopyran-4-yl)oxy)-3-fluorostyryl)-1,3-diethyl-7-methyl-1H-purine-2,6(3H,7H)-dione] | 3250 | 4230 | 4180 | 985 | 4.35 | 0.083 | 3.94 | 4 | 24400 | 23700 | 3110 | 5.94 | 1.67 | 4.77 | 110.2 | 1.03 | 
2 | CCn1c(=O)c2c(nc(/C=C/c3ccc(OC4CCS(=O)(=O)CC4)nc3)n2C)n(CC)c1=O [Example 4, (E)-8-(2-(6-((1,1-dioxidotetrahydro-2H-thiopyran-4-yl)oxy)pyridin-3-yl)vinyl)-1,3-diethyl-7-methyl-1H-purine-2,6(3H,7H)-dione] | 2990 |  |  |  |  |  |  |  |  |  |  |  |  |  |  |  | 
3 | CCn1c(=O)c2c(nc(/C=C/c3ccc(OC4CCC(F)(F)CC4)cc3)n2C)n(CC)c1=O [Example 6, (E)-8-(4-((4,4-difluorocyclohexyl)oxy)styryl)-1,3-diethyl-7-methyl-1H-purine-2,6(3H,7H)-dione] | 1480 |  |  |  |  |  |  |  |  |  |  |  |  |  |  |  | 
4 | CCn1c(=O)c2c(nc(/C=C/c3ccc(OC4CCS(=O)(=O)CC4)cc3)n2C)n(CC)c1=O [Example 1, (E)-8-(4-((1,1-dioxidotetrahydro-2H-thiopyran-4-yl)oxy)styryl)-1,3-diethyl-7-methyl-1H-purine-2,6(3H,7H)-dione] | 2510 | 4360 | 4340 | 879 | 4.26 | 0.083 | 3.82 | 3.35 | 32300 | 32100 | 3660 | 5.2 | 1.67 | 3.39 | 148.2 | 0.977 | AUC(0-inf) [3, 6]: 56300 ng·h/mL; AUC(0-t) [3, 6]: 25400 ng·h/mL; Cmax [3, 6]: 1870 ng/mL; MRT inf [3, 6]: 41.5 h; Tmax [3, 6]: 1 h; clearance [3, 6]: 0.296 mL/min/kg; half-life [3, 6]: 30.5 h; AUC(0-inf) [3, 7]: 114000 ng·h/mL; AUC(0-t) [3, 7]: 40300 ng·h/mL; Cmax [3, 7]: 2530 ng/mL; MRT inf [3, 7]: 54 h; Tmax [3, 7]: 4.67 h; half-life [3, 7]: 36.9 h; F [3, 5]: 38.7%; Vss ([3]; intravenous injection, 1 mg/kg): 0.737 kg⁻¹
